A word on the IC50: it is the concentration needed to halve the response being measured.

These results are taken from patent US12479827B2, “Heteroaromatic carboxamide derivatives as plasma kallikrein inhibitors” (Boehringer Ingelheim International GmbH, priority 2020, dated 2025).

In one assay the target is T1, Human PKK (Homo sapiens, UniProt P03952).
T1 construct: purchased Enzyme Research Laboratories
As to the kind of experiment: Inhibition of PKK using an endpoint assay (human PKK). It counts as biochemical. Particulars: fluorogenic substrate H-Pro-Phe-Arg-AMC, 1 h room temperature, method names human or rat PKK, table does not say which. The method in brief: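 Human PKK inhibition measured in 100 mM Tris, 150 mM NaCl, pH 7.8, 0.1% BSA, 0.05% Tween20, 1% DMSO. Endpoint format: reaction stopped with PPACK II at 1 μM final, fluorescence read at 355 nm excitation/460 nm emission.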

The target of assay [1] is T2, PKK in kaolin activated human platelet poor plasma (Homo sapiens, UniProt P03952).
T2 construct: Platelet poor plasma (PPP) obtained from human wholeblood; from tissue
T2 sequence (P03952 391-638 limits assumed): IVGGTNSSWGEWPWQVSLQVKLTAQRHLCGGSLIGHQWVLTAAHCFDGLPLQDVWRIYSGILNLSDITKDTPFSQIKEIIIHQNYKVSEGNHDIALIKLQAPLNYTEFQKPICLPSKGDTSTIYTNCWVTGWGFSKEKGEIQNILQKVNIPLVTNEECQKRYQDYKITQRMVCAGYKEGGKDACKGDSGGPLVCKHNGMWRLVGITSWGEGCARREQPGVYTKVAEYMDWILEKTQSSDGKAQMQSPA
T2 sequence (P03952 20-390 limits assumed): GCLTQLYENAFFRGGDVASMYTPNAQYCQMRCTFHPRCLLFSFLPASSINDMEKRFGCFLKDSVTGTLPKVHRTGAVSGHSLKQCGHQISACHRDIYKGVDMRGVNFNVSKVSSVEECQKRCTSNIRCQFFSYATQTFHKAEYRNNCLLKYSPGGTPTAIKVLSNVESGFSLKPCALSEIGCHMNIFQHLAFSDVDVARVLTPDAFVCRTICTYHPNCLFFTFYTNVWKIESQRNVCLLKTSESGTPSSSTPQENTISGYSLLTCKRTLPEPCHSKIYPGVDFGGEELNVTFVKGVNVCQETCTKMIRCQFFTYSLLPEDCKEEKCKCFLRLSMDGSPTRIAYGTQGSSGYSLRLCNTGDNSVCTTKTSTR
As to the kind of experiment: Inhibition of PKK in kaolin activated human PPP.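 Also: readout is the rate of fluorogenic substrate cleavage in rfu per min.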 The format is biochemical. Particulars: 25-750 μg/mL kaolin, global fit, text b200 calls the values IC90. Here is the method: Platelet poor plasma (PPP) obtained from human wholeblood, anticoagulated with Na-Citrate, is incubated with various concentrations of the test compound together with either 25, 75, 250, or 750 μg/mL kaolin in assay buffer for 20 min at 37° C. such that for each kaolin dose used a concentration response is obtained for the test compound.

T1 sequence (P03952 20-390 limits assumed): as above
T1 sequence (P03952 391-638 limits assumed): as the sequence (P03952 391-638 limits assumed) above

As for `COCc1nc(N2CC3(CC3)C2)ccc1Cn1cnc(C(=O)N[C@@H]2CCc3c2ncn3C)c1` [Example 77, 1-[(6-{5-Azaspiro[2.3]hexan-5-yl}-2-(methoxymethyl)-pyridin-3-yl)methyl]-N-[(4R)-1-methyl-1H,4H,5H,6H-cyclopenta[d]imidazol-4-yl]-1H-imidazole-4-carboxamide], the half-maximal inhibitory concentration (IC50) is 3.3 nM at Human PKK and 197 nM in assay [1].

As for `COCc1nc(N2CC3(CC3)C2)ccc1Cn1cc(C(=O)N[C@@H]2CCc3c2ncn3C)cn1` [Example 78, 1-[(6-{5-Azaspiro[2.3]hexan-5-yl}-2-(methoxymethyl)-pyridin-3-yl)methyl]-N-[(4R)-1-methyl-1H,4H,5H,6H-cyclopenta[d]imidazol-4-yl]-1H-pyrazole-4-carboxamide], the IC50 at Human PKK was 6.8 nM; in assay [1], 317 nM.

For the compound `Cn1cnc2c1CC[C@H]2NC(=O)c1cnn(Cc2ccc(N3CC4(CC4)C3)nc2CO)c1` [Example 79, 1-[(6-{5-Azaspiro[2.3]hexan-5-yl}-2-(hydroxymethyl)-pyridin-3-yl)methyl]-N-[(4R)-1-methyl-1H,4H,5H,6H-cyclopenta[d]imidazol-4-yl]-1H-pyrazole-4-carboxamide], the 50% inhibitory concentration (IC50) stood at 5.5 nM against Human PKK and 249 nM in assay [1].

Take `Cn1cnc2c1CC[C@H]2NC(=O)c1cnn(Cc2ccc(N3CC4CC4C3)nc2CC#N)c1` (stereo partly drawn) [Example 81, 1-[(6-{3-Azabicyclo[3.1.0]hexan-3-yl}-2-(cyanomethyl)-pyridin-3-yl)methyl]-N-[(4R)-1-methyl-1H,4H,5H,6H-cyclopenta[d]imidazol-4-yl]-1H-pyrazole-4-carboxamide]: the IC50 against Human PKK was found to be 1.3 nM; in assay [1], 117 nM.

`C[C@@H](O)c1nc(N2CC3CC3C2)ccc1Cn1cc(C(=O)N[C@@H]2CCc3c2ncn3C)cn1` (stereo partly drawn) [Example 82, 1-[(6-{3-Azabicyclo[3.1.0]hexan-3-yl}-2-[(1R)-1-hydroxy-ethyl]pyridin-3-yl)methyl]-N-[(4R)-1-methyl-1H,4H,5H,6H-cyclopenta[d]imidazol-4-yl]-1H-pyrazole-4-carboxamide]: the concentration for half-maximal inhibition (IC50) at Human PKK amounted to 0.8 nM; in assay [1] it was 117 nM.

Regarding `C[C@H](O)c1nc(N2CC3CC3C2)ccc1Cn1cc(C(=O)N[C@@H]2CCc3c2ncn3C)cn1` (stereo partly drawn) [Example 83, 1-[(6-{3-Azabicyclo[3.1.0]hexan-3-yl}-2-[(1S)-1-hydroxy-ethyl]pyridin-3-yl)methyl]-N-[(4R)-1-methyl-1H,4H,5H,6H-cyclopenta[d]imidazol-4-yl]-1H-pyrazole-4-carboxamide], the IC50 against Human PKK came out at 1.7 nM; in assay [1], 594 nM.

On to `Cn1cnc2c1CC[C@H]2NC(=O)c1cnn(Cc2ccc(N3CC4CC4C3)nc2C(C)(C)O)c1` (stereo partly drawn) [Example 84, 1-[(6-{3-Azabicyclo[3.1.0]hexan-3-yl}-2-(2-hydroxypropan-2-yl)pyridin-3-yl)methyl]-N-[(4R)-1-methyl-1H,4H,5H,6H-cyclopenta[d]imidazol-4-yl]-1H-pyrazole-4-carboxamide], for which the IC50 came out at 0.7 nM against Human PKK and 209 nM in assay [1].

`Cn1cnc2c1CC[C@H]2NC(=O)c1cnn(Cc2ccc(N3CC4CC4C3)nc2CCO)c1` (stereo partly drawn) [Example 85, 1-[(6-{3-Azabicyclo[3.1.0]hexan-3-yl}-2-(2-hydroxyethyl)-pyridin-3-yl)methyl]-N-[(4R)-1-methyl-1H,4H,5H,6H-cyclopenta[d]imidazol-4-yl]-1H-pyrazole-4-carboxamide]: the results for the 50% inhibitory concentration (IC50) (against Human PKK; in assay [1]) were 0.8 nM and 132 nM, respectively.

As for `Cn1cnc2c1CC[C@H]2NC(=O)c1cn(Cc2ccc(N3CC4(CC4)C3)nc2CO)cn1` [Example 87, 1-[(6-{5-Azaspiro[2.3]hexan-5-yl}-2-(hydroxymethyl)-pyridin-3-yl)methyl]-N-[(4R)-1-methyl-1H,4H,5H,6H-cyclopenta[d]imidazol-4-yl]-1H-imidazole-4-carboxamide], the IC50 was 3.3 nM at Human PKK and 177 nM in assay [1].

Regarding `CC(O)c1nc(N2CC3CC3C2)ccc1Cn1cc(C(=O)N[C@@H]2CCc3c2ncn3C)cn1` (stereo partly drawn) [Example 88, 1-[(6-{3-Azabicyclo[3.1.0]hexan-3-yl}-2-(1-hydroxyethyl)-pyridin-3-yl)methyl]-N-[(4R)-1-methyl-1H,4H,5H,6H-cyclopenta[d]imidazol-4-yl]-1H-pyrazole-4-carboxamide], the figures for the IC50 (against Human PKK; in assay [1]) were 0.9 nM and 139 nM, respectively.

`Cn1cnc2c1CC[C@H]2NC(=O)c1cnn(Cc2ncc(N3CC4CC4C3)nc2CO)c1` (stereo partly drawn) [Example 89, 1-[(5-{3-Azabicyclo[3.1.0]hexan-3-yl}-3-(hydroxymethyl)-pyrazin-2-yl)methyl]-N-[(4R)-1-methyl-1H,4H,5H,6H-cyclopenta[d]imidazol-4-yl]-1H-pyrazole-4-carboxamide]: the IC50 on Human PKK amounted to 77.5 nM; in assay [1], 3430 nM.

As to `Cn1cnc2c1CC[C@H]2NC(=O)c1cn(Cc2ccc(N3CC4CC4C3)nc2CO)nn1` (stereo partly drawn) [Example 91, 1-[(6-{3-Azabicyclo[3.1.0]hexan-3-yl}-2-(hydroxymethyl)-pyridin-3-yl)methyl]-N-[(4R)-1-methyl-1H,4H,5H,6H-cyclo-penta[d]imidazol-4-yl]-1H-1,2,3-triazole-4-carboxamide], the concentration for half-maximal inhibition (IC50) amounted to 2.1 nM against Human PKK and 439 nM in assay [1].

`COCc1nc(N2CC3CC3C2)ccc1Cn1cc(C(=O)N[C@@H]2CCc3c2ncn3C)nn1` (stereo partly drawn) [Example 92, 1-[(6-{3-Azabicyclo[3.1.0]hexan-3-yl}-2-(methoxymethyl)-pyridin-3-yl)methyl]-N-[(4R)-1-methyl-1H,4H,5H,6H-cyclo-penta[d]imidazol-4-yl]-1H-1,2,3-triazole-4-carboxamide]: the values for the IC50 (against Human PKK; in assay [1]) were 2.8 nM and 307 nM, respectively.

As for `Cn1cnc2c1CC[C@H]2NC(=O)c1cnn(Cc2ccc(N3CC4C(C3)C4(F)F)nc2CO)c1` (stereo partly drawn) [Example 93, 1-[(6-{6,6-Difluoro-3-azabicyclo[3.1.0]hexan-3-yl}-2-(hydroxymethyl)pyridin-3-yl)methyl]-N-[(4R)-1-methyl-1H,4H,5H,6H-cyclopenta-[d]imidazol-4-yl]-1H-pyrazole-4-carboxamide], the results for the IC50 (on Human PKK; in assay [1]) were 1.4 nM and 110 nM, respectively.

`Cc1nc(N2CC3C(C2)C3(F)F)cnc1Cn1cc(C(=O)N[C@@H]2CCc3c2ncn3C)nn1` (stereo partly drawn) [Example 94, 1-[(5-{6,6-Difluoro-3-azabicyclo[3.1.0]hexan-3-yl}-3-methylpyrazin-2-yl)methyl]-N-[(4R)-1-methyl-1H,4H,5H,6H-cyclopenta[d]imidazol-4-yl]-1H-1,2,3-triazole-4-carboxamide]: the figures for the IC50 (against Human PKK; in assay [1]) were 10.8 nM and 1760 nM, respectively.

`COCc1nc(N2CC3C(C2)C3(F)F)ccc1Cn1cnc(C(=O)N[C@@H]2CCc3c2ncn3C)c1` (stereo partly drawn) [Example 95, 1-[(6-{6,6-Difluoro-3-azabicyclo[3.1.0]hexan-3-yl}-2-(methoxymethyl)pyridin-3-yl)methyl]-N-[(4R)-1-methyl-1H,4H,5H,6H-cyclopenta-[d]imidazol-4-yl]-1H-imidazole-4-carboxamide]: the IC50 is 5.5 nM at Human PKK and 577 nM in assay [1].

As to `Cn1cnc2c1CC[C@H]2NC(=O)c1cn(Cc2ccc(N3CC4C(C3)C4(F)F)nc2CO)cn1` (some centres unmarked) [Example 96], the IC50 on Human PKK was 1.5 nM; in assay [1], 134 nM.

For `COc1nc(N2CC3C(C2)C3(F)F)ccc1Cn1cnc(C(=O)N[C@@H]2CCc3c2ncn3C)c1` (stereo partly drawn) [Example 97, 1-[(6-{6,6-Difluoro-3-azabicyclo[3.1.0]hexan-3-yl}-2-methoxypyridin-3-yl)methyl]-N-[(4R)-1-methyl-1H,4H,5H,6H-cyclopenta[d]imidazol-4-yl]-1H-imidazole-4-carboxamide], the results for the IC50 (against Human PKK; in assay [1]) were 1.4 nM and 766 nM, respectively.

`Cn1cnc2c1CC[C@H]2NC(=O)c1cn(Cc2ccc(N3CC4CC4C3)nc2CO)cn1` (stereo partly drawn) [Example 98, 1-[(6-{3-Azabicyclo[3.1.0]hexan-3-yl}-2-(hydroxymethyl)pyridin-3-yl)methyl]-N-[(4R)-1-methyl-1H,4H,5H,6H-cyclopenta[d]imidazol-4-yl]-1H-imidazole-4-carboxamide]: the IC50 against Human PKK worked out at 1.5 nM; in assay [1] it was 282 nM.

With `Cn1cnc2c1CC[C@H]2NC(=O)c1cnn(Cc2cnc(N3CC4CC4C3)cc2Cl)c1` (stereo partly drawn) [Example 99, 1-[(6-{3-Azabicyclo[3.1.0]hexan-3-yl}-4-chloropyridin-3-yl)methyl]-N-[(4R)-1-methyl-1H,4H,5H,6H-cyclopenta[d]imidazol-4-yl]-1H-pyrazole-4-carboxamide], the 50% inhibitory concentration (IC50) at Human PKK was 3.7 nM; in assay [1], 2170 nM.

For `CCc1nc(N2CC3CC3C2)ccc1Cn1cc(C(=O)N[C@@H]2CCc3c2ncn3C)nn1` (stereo partly drawn) [Example 101, 1-[(6-{3-Azabicyclo[3.1.0]hexan-3-yl}-2-ethylpyridin-3-yl)methyl]-N-[(4R)-1-methyl-1H,4H,5H,6H-cyclopenta[d]imidazol-4-yl]-1H-1,2,3-triazole-4-carboxamide], the 50% inhibitory concentration (IC50) was found to be 0.6 nM on Human PKK and 297 nM in assay [1].

Take `CCOc1nc(N2CC3C(C2)C3(F)F)ccc1Cn1cnc(C(=O)N[C@@H]2CCc3c2ncn3C)c1` (stereo partly drawn) [Example 102, 1-[(6-{6,6-Difluoro-3-azabicyclo[3.1.0]hexan-3-yl}-2-ethoxypyridin-3-yl)methyl]-N-[(4R)-1-methyl-1H,4H,5H,6H-cyclopenta[d]imidazol-4-yl]-1H-imidazole-4-carboxamide]: the IC50 was determined as 2.1 nM against Human PKK and 1440 nM in assay [1].
